Test results from ChEMBL document CHEMBL4130419, “Novel chemotypes targeting tubulin at the colchicine binding site and unbiasing P-glycoprotein” (Eur J Med Chem, 2017).

Legend:
[1] = test system: MCF7; experiment: Antiproliferative activity against human MCF7 cells after 72 hrs by MTT assay; assay type: functional, cell-based; details: MCF7, 72 h
[2] = test system: HepG2; experiment: Antiproliferative activity against human HepG2 cells after 72 hrs by MTT assay; assay type: functional, cell-based; details: HepG2, 72 h
[3] = test system: HeLa; experiment: Antiproliferative activity against human HeLa cells after 72 hrs by MTT assay; assay type: functional, cell-based
[4] = test system: SH-SY5Y; experiment: Antiproliferative activity against human SH-SY5Y cells after 72 hrs by MTT assay; assay type: functional, cell-based
[5] = species: Sus scrofa; experiment: Inhibition of tubulin polymerization in porcine brain assessed as disruption of microtubule organization after 1 hr by fluorescence polarization assay
[6] = Apparent permeability from apical to basolateral side in MDCK2-MDR1 cells at 75 uM after 2 hrs UV-visible spectroscopy; assay type: ADME, cell-based, Canis lupus familiaris; details: dog, MDCK-MDR1
[7] = Apparent permeability from basolateral to apical side in MDCK2-MDR1 cells at 75 uM after 2 hrs UV-visible spectroscopy; assay type: ADME, cell-based, Canis lupus familiaris; details: dog, MDCK-MDR1
[8] = Efflux ratio of apparent permeability from basolateral to apical over apical to basolateral side in MDCK2-MDR1 cells at 75 uM after 2 hrs by UV-visible spectroscopy; assay type: ADME, cell-based, Canis lupus familiaris; details: dog, MDCK-MDR1

Structure (SMILES)	IC50 [1] [µM]	IC50 [2] [µM]	IC50 [3] [µM]	IC50 [4] [µM]	inhibition [5]	Papp A→B at 2 h, 75 µM [6] [×10⁻⁶ cm/s]	Papp B→A at 2 h, 75 µM [7] [×10⁻⁶ cm/s]	efflux ratio at 2 h, 75 µM [8]
COc1ccc(NS(=O)(=O)c2ccc3c(c2)N(C(C)=O)CC(C)O3)cc1Cl (centres undefined)	23	77.6	45.7	> 100	Dose-dependent effect			
O=C(Cn1cc(CNC2(c3ccccc3F)CCCC2)c2ccccc21)NC1CC1	29	> 100	52.5	> 100	Dose-dependent effect			
Cn1cc(SCC(=O)N2N=C(c3cccs3)CC2c2ccc(F)cc2)c2ccccc21 (centres undefined)	37.1	> 100	44	11.7	Dose-dependent effect	39	47	1.2
Cc1cccc(-c2nnc(SCC(=O)c3ccc(O)cc3O)n2-c2ccccc2)c1	67.2	33.1	16	12.7	Dose-dependent effect	22	13	0.59
COc1ccc(-c2cc(C(F)F)n3ncc(C(=O)Nc4cc(Cl)ccc4O)c3n2)cc1	2.2	> 100	74	40	Dose-dependent effect	18	21	1.16
Cc1ccc(NC(=O)Cn2c(C(F)(F)F)nc3ccccc32)c(-c2nc(C3CC3)n[nH]2)c1	13	38.9	1.6	0.9	Dose-dependent effect			
CCOC(=O)c1c(C)[nH]c(C)c1C(=O)CSC1=Nc2ccccc2C2CC=NN12 (centres undefined)	32	14.1	63.2	3.7	Dose-dependent effect	76	47	0.62
CSc1ccccc1NC(=O)c1cnn2c(C(F)F)cc(-c3ccc(C)cc3)nc12	6	100	95.5	57.5	Dose-dependent effect			
CCCCN1C(=O)c2[nH]nc(-c3ccccc3O)c2C1c1ccc(OCC)cc1 (centres undefined)	5.2	18.3	21	22.5	Dose-dependent effect	63	55	0.87
NC(=O)C1CCN(c2nc(CSc3ccccc3)nc3sc4c(c23)CCCC4)CC1	11	52.5	45.7	11.5	Dose-dependent effect	45	82	1.82
CCC(c1nnc(SCC(=O)c2[nH]c(C)c(C(C)=O)c2C)n1Cc1ccccc1)N(C)C (centres undefined)	10	96.9	74.1	37	Dose-dependent effect			
CCOC(=O)c1c(NC(=O)C2=C(C)N=C(S)NC2c2ccc(CC)cc2)sc(C)c1C (centres undefined)	26	> 100	36.3	> 100	Dose-dependent effect			
C=CCOc1ccccc1CN(C(=O)CN1CCNC(=O)C1)c1ccc2c(c1)OCO2	32	> 100	66	> 100	Dose-dependent effect			
CCc1cccc(NC(=O)c2cnn3c(C(F)F)cc(-c4ccc(C)cc4)nc23)c1	9.2	> 100	95.5	100	Dose-dependent effect			
Cc1ccc(-n2c(SCC(=O)N3CC(=O)Nc4ccccc43)nnc2-c2cccc(C)c2)cc1	68	> 100	83	72.4	Dose-dependent effect			
COc1ccc(-c2nc3ccccc3c3nnc(SCc4ncc(C)c(OC)c4C)n23)cc1	1.4	> 100	19	66	Dose-dependent effect			

Structure (SMILES)	IC50 [1] [µM]	IC50 [2] [µM]	IC50 [3] [µM]	IC50 [4] [µM]	inhibition [5]	Papp A→B at 2 h, 75 µM [6] [×10⁻⁶ cm/s]	Papp B→A at 2 h, 75 µM [7] [×10⁻⁶ cm/s]	efflux ratio at 2 h, 75 µM [8]
COc1ccc(-n2c(SCC(=O)c3ccc(OC(F)F)cc3)nc3ccccc32)cc1	9	63.9	37.1	52.5	Dose-dependent effect			
CCOc1ccc(-n2c(SCC(=O)N3CCOCC3)nnc2-c2cccc(C)c2)cc1	93	> 100	61.6	> 100	Dose-dependent effect			
CCOC(=O)C1CCCN(C(=O)c2cc(-c3ccc(Cl)cc3)nc3ccccc23)C1 (centres undefined)	17.4	100	54.9	38	Dose-dependent effect			
Cc1n[nH]c(O)c1C(c1cccc(OCc2ccc(F)cc2)c1)c1c(O)n[nH]c1C	8	> 100	23.9	43.7	Dose-dependent effect			
COc1cc2c(=O)c(C(=O)c3ccc(C)c(C)c3)cn(Cc3ccc(F)cc3)c2cc1OC	5.7	72.4	36.3	25.1	Dose-dependent effect			
Cc1cc(C)c(O)c(-c2n[nH]c3c2C(c2ccccc2)N(CCCO)C3=O)c1 (centres undefined)	54	48.9	50.1	51.3	Dose-dependent effect			
O=C(CSc1nnc(-c2c[nH]c3ccccc23)n1CC1CCCO1)c1ccc(Cl)s1 (centres undefined)	66	79.4	45.7	34.7	Dose-dependent effect			
CCOC(=O)c1c(NC(=O)C2CC(=O)Nc3ccccc32)sc(C)c1C (centres undefined)	9	> 100	> 100	67.5	Dose-dependent effect			
COc1ccc(C2CCCN2CC(=O)Nc2ccccc2-c2ccccc2)cc1 (centres undefined)	7	35.5	20.8	8.7	Dose-dependent effect			
COc1ccc(C)cc1NC(=O)c1cnn2c(C(F)F)cc(-c3ccc(C)cc3)nc12	7	> 100	15.1	67.6	Dose-dependent effect			
CC(=O)Nc1ccc(C2=CC(c3ccc(Cl)cc3Cl)n3nc(CCCO)nc3N2)cc1 (centres undefined)	66	74.1	63.1	61.7	Dose-dependent effect			
COc1cc2c(c(OC)c1OC)-c1ccc(OC)c(=O)cc1[C@@H](NC(C)=O)CC2 [COLCHICINE]		0.042						
CCCSc1nnc(N2C(=O)C(O)=C(C(=O)c3ccco3)C2c2ccccc2F)s1 (centres undefined)	25.2	> 100	55	10.3	Dose-dependent effect			
Cc1cccc(-n2ccnc2SCC(=O)c2ccc3c(c2)CCC(=O)N3)c1	66	91.2	81.7	67.6	Dose-dependent effect			
Cc1cccc(-n2nc(C)c3c2NC2=C(C(=O)CC(C)(C)C2)C3c2ccc(O)cc2)c1 (centres undefined)	25	> 100	10.7	70.8	Dose-dependent effect			
